From the NIST ThermoML archive (doi:10.1016/j.jct.2012.07.015)

How the values were obtained:
[1] = for viscosity / mass density: 101.33 kPa; for viscosity / mass density / surface tension liquid-gas: Liquid; for mass density: Vibrating tube method
[2] = molar heat capacity at constant pressure; conditions: 101.33 kPa, Liquid, Small sample (50 mg) DSC
[3] = Molar enthalpy of transition or fusion; conditions: Crystal; DSC

CCCC[n+]1cccc(C#N)c1.O=S(=O)([N-]S(=O)(=O)C(F)(F)F)C(F)(F)F [1-butyl-3-cyanopyridinium bis(trifluoromethylsulfonyl)imide]
Conditions	Glass transition temperature [°C]	mass density [kg/m3]	molar heat capacity at constant pressure [J/K/mol]	surface tension liquid-gas [mN/m]	viscosity [mPa·s]
[1], 293.15 K	–	1483.2	–	–	1546.7
[1], 298.15 K	–	1478.7	–	32	983.7
[1], 303.15 K	–	1474.2	–	–	659.7
[1], 308.15 K	–	1469.7	–	31.77	485.1
[1], 313.15 K	–	1465.3	–	–	327.5
[1], 318.15 K	–	1460.8	–	31.59	240.7
[1], 323.15 K	–	1456.3	–	–	182.6
[1], 328.15 K	–	1452	–	31.39	140.5
[1], 333.15 K	–	1447.7	–	–	110.1
[1], 338.15 K	–	1443.4	–	31.09	87.9
[1], 343.15 K	–	1439.1	–	–	67.6
[1], 348.15 K	–	1434.8	–	–	55.3
[1], 353.15 K	–	1430.5	–	–	45.8
[1], 358.15 K	–	1426.3	–	–	38.5
[1], 363.15 K	–	1422	–	–	32.8
[1], DTA	-54.4	–	–	–	–
[2], 298.15 K	–	–	586	–	–
[2], 323.15 K	–	–	596	–	–
[2], 353.15 K	–	–	605	–	–

CCCCCC[n+]1ccc(C#N)cc1.O=S(=O)([N-]S(=O)(=O)C(F)(F)F)C(F)(F)F [1-hexyl-4-cyanopyridinium bis(trifluoromethylsulfonyl)imide]
Conditions	Glass transition temperature [°C]	mass density [kg/m3]	molar heat capacity at constant pressure [J/K/mol]	surface tension liquid-gas [mN/m]	viscosity [mPa·s]
[1], 293.15 K	–	1411.6	–	–	1065.6
[1], 298.15 K	–	1407.1	–	30.6	704.2
[1], 303.15 K	–	1402.6	–	–	481.8
[1], 308.15 K	–	1398.1	–	30.25	340.3
[1], 313.15 K	–	1393.6	–	–	235.8
[1], 318.15 K	–	1389.1	–	29.89	175.4
[1], 323.15 K	–	1384.8	–	–	133.3
[1], 328.15 K	–	1380.5	–	29.48	103.3
[1], 333.15 K	–	1376.1	–	–	81.7
[1], 338.15 K	–	1371.8	–	29.01	65.6
[1], 343.15 K	–	1367.5	–	–	53.5
[1], 348.15 K	–	1363.2	–	–	44.3
[1], 353.15 K	–	1358.9	–	–	37.2
[1], 358.15 K	–	1354.6	–	–	31.5
[1], 363.15 K	–	1350.3	–	–	26.9
[1], DTA	-51.9	–	–	–	–
[2], 298.15 K	–	–	633	–	–
[2], 323.15 K	–	–	643	–	–
[2], 353.15 K	–	–	652	–	–

Conditions	Triple point temperature [K]
[1], Crystal, DTA	280.2

Conditions	Molar enthalpy of transition or fusion [kcal/mol]
[3]	4.5
